# Data as given in US3975524A, “3-Piperazino-isoquinolines and salts thereof” (Boehringer Ingelheim GmbH, priority 1974, dated 1976).
# Read-outs that look alike come from different tables or passages of the source.
# Columns and labels:
# platelet stickiness = assay: retention test according to Morris (inhibition of platelet stickiness on glass beads); format: cell-based; settings: human citrate-blood, 10 min at 37°C
# Procedure: 1. The inhibiting effect upon the platelet stickiness was determined by means of the so-called retention test according to Morris [see E. Deutsch et al, 1. Internationales Symposium uber Stoffwechsel und Membranpermeabilitat von Erythrocyten und Thrombocyten, Vienna, Austria (1969); Georg Thieme Verlag, Stuttgart, Germany]. 1 ml of human citrate-blood is pipetted into each of a number of small test tubes, and the test compound is added to various final concentrations. The tubes are incubated for 10 minutes at 37°C. 1 gm of glass beads (glass beads for gas-chromatography) is added to half of the tubes. Finally, the closed tubes are attached to a vertical wheel and rotated for 1 minute. By this means good contact is obtained between the glass beads and the blood. The tubes are then allowed to stand at room temperature for another hour, after which time a satisfactory sedimentation of erythrocytes has taken place. 0.01 ml of the supernatant plasma is removed, diluted to 1:8,000 with celloscope solution, and the platelet count is read in the celloscope.
# thrombocyte aggregation [1] = assay: inhibition of thrombocyte aggregation induced by collagen; format: cell-based, human; settings: platelet-rich plasma
# Description: (§1) 2. The inhibiting action upon thrombocyte aggregation was ascertained by the method of Born and Cross, J. Physiol. 170, 397 (1964), in the platelet-rich plasma of healthy human test subjects, by photometrically ascertaining and registering the rate of decrease of the optical density after addition of (a) adenosine diphosphate (ADP). The angle of inclination of the density curve is a measure of the rate of aggregration (V max.). The point on the curve which corresponded to the greatest light-permeability was used for calculation of the optical density (o.D.).
# (b) Aggregration with collagen
# The procedure is the same as described under (a). To provoke aggregation commercial collagen was used, containing 1 mgm of collagen fibrils per 1 ml. To provoke maximum aggregation, about 0.01 ml of this collagen solution was added to 1 ml of platelet-rich plasma. Previously, the plasma was incubated at 37°C with varying quantities of test compound for 10 minutes each: […]
# bleeding time = assay: prolonging effect upon the bleeding time, method of Duke; format: in vivo; settings: 10 mgm/kg per os, mice, vs untreated animals
# Procedure: 3. The prolonging effect upon the bleeding time was ascertained by the method of Duke, J. Amer. Med. Assoc. 15, 1185 (1910). 10 mgm/kg of the test compound were given per os to non-anesthetized mice. After 1 or 3 hours, about 0.5 mm was cut off from the tail of each animal, and the exuded blood was carefully soaked up with filter paper at intervals of 30 seconds. The number of drops of blood so obtained was used as a measure for the bleeding time compared to untreated animals (5 animals/test).
# thrombocyte aggregation [2] = assay: inhibition of thrombocyte aggregation induced by adenosine diphosphate (ADP), Born and Cross; format: cell-based; settings: 10 min, platelet-rich human plasma, 10 min at 37°C, read-out: ED50 (concentration which reduces the maximum light-permeability after addition of ADP by 50%)
# Description: as §1
# The ADP-doses were held to a minimum, but still sufficiently large to result in an irreversible aggregation. Prior to addition of ADP, each plasma sample was incubated for 10 minutes at 37°C with various amounts of the test compound. From the data thus obtained, the median effective amount of test compound (ED50), i.e. the concentration which reduces the maximum light-permeability in platelet-rich plasma after addition of ADP by 50%, was calculated.
# [3] = acute toxicity in white mice after oral or intravenous administration; format: in vivo; settings: observation time 14 days; for LD50 at 336 h: mouse, in vivo; for animals died: 250 mgm/kg p.o.
# Procedure: 4. The acute toxicities of the compounds were determined in white mice (observation time: 14 days) after oral or intravenous adminstration. The LD50 was calculated from the percentage of animals which died after different doses within the observation time [see Finney et al in Probit Analysis, third Edition, Cambridge (1971)].
# [4] = po, read-out: Toxicity (p.o. bound)
Structure (SMILES),Inhibition in % (platelet stickiness) (platelet stickiness; 3×10^^-5 mol/liter) [%],% inhibition of O.D. (thrombocyte aggregation [1]; 10^^-4 mol/liter) [%],% inhibition of Vmax (thrombocyte aggregation [1]; 10^^-4 mol/liter) [%],% inhibition of O.D. (thrombocyte aggregation [1]; 10^^-5 mol/liter) [%],% inhibition of Vmax (thrombocyte aggregation [1]; 10^^-5 mol/liter) [%],% Prolongation of bleeding time (bleeding time; 1 hour after application) [%],IC50 (thrombocyte aggregation [2]) [µM],% inhibition of O.D. (thrombocyte aggregation [1]; 3.10^^-5 mol/liter) [%],% inhibition of Vmax (thrombocyte aggregation [1]; 3.10^^-5 mol/liter) [%],% Prolongation of bleeding time (bleeding time; 3 hours after application) [%],"LD50 at 336 h ([3]; iv, read-out: LD50) [mg/kg]","LD50 at 336 h ([3]; po, read-out: LD50) [mg/kg]",Inhibition in % (platelet stickiness) (platelet stickiness; 5×10^^-5 mol/liter) [%],animals died [3],"LD50 at 336 h [3, 4] [mg/kg]",Inhibition in % (platelet stickiness) (platelet stickiness; 10^^-4 mol/liter) [%]
"c1ccc2c(N3CCSCC3)nc(N3CCNCC3)cc2c1 [A, 1-thiomorpholino-3-piperazino-isoquinoline]",18,100,100,62,51,90,–,–,–,–,–,–,–,–,–,–
"[O-][S+]1CCN(c2nc(N3CCNCC3)cc3ccccc23)CC1 [B, 1-(1-oxido-thiomorpholino)-3-piperazino-isoquinoline]",33,–,–,80,75,83,30,96,96,16,123,940,–,–,–,–
"CN1CCN(c2cc3ccccc3c(N3CCOCC3)n2)CC1 [C, 1-morpholino-3-(N'-methyl-piperazino)-isoquinoline]",–,–,–,–,–,85,–,–,–,–,–,–,50,2 out of 5,> 250,–
"[O-][S+]1CCN(c2nc(N3CCNCC3)cc3c(Cl)cccc23)CC1 [Compound E, 1-(1-oxido-thiomorpholino)-3-piperazino-5-chloro-isoquinoline]",–,–,–,100,100,146,–,–,–,–,–,–,–,0 out of 5,> 250,92
"Cc1cccc2c(N3CC[S+]([O-])CC3)nc(N3CCNCC3)cc12 [D, 1-(1-oxido-thiomorpholino)-3-piperazino-5-methyl-isoquinoline]",–,–,–,–,–,78,–,100,100,–,–,–,–,0 out of 5,> 250,86
"COc1cccc2c(N3CC[S+]([O-])CC3)nc(N3CCNCC3)cc12 [F, 1-(1-oxido-thiomorpholino)-3-piperazino-5-methoxy-isoquinoline]",–,–,–,100,100,117,–,–,–,–,–,–,–,–,–,70
